In ChEMBL document CHEMBL1201862, “PubChem BioAssay data set” (2004):
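A five-concentration, 48-hour dose response in 96-well plates underlies each endpoint, interpolated linearly between surrounding concentrations. GI50: concentration for 50% inhibition of growth.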 Active and inactive are the calls of the source. No stated cut-off is given here; in the data, active = GI50 up to about 1.1 µM and inactive = higher.

Legend:
Test in all cases: NCI tumour cell line growth inhibition, 48 h
SF-539 = tested on: SF-539
OVCAR-8 = tested on: OVCAR-8
CAKI-1 = tested on: CAKI-1
U-251 = tested on: U-251
A549 = tested on: A549
SNB-75 = tested on: SNB-75
MDA-MB-231 = tested on: MDA-MB-231
NCI-H226 = tested on: NCI-H226
T47D = tested on: T47D
SW-620 = tested on: SW-620
HOP-92 = tested on: HOP-92
RXF 393 = tested on: RXF 393
BT-549 = tested on: BT-549
K562 = tested on: K562
MDA-MB-435 = tested on: MDA-MB-435
SNB-19 = tested on: SNB-19
NCI-H23 = tested on: NCI-H23
HL-60 = tested on: HL-60
SF-268 = tested on: SF-268
Hs-578T = tested on: Hs-578T

| SMILES | GI50 (SF-539) | GI50 (OVCAR-8) | GI50 (CAKI-1) | GI50 (U-251) | GI50 (A549) | GI50 (SNB-75) | GI50 (MDA-MB-231) | GI50 (NCI-H226) | GI50 (T47D) | GI50 (SW-620) | GI50 (HOP-92) | GI50 (RXF 393) | GI50 (BT-549) | GI50 (K562) | GI50 (MDA-MB-435) | GI50 (SNB-19) | GI50 (NCI-H23) | GI50 (HL-60) | GI50 (SF-268) | GI50 (Hs-578T) |
| --- | --- | --- | --- | --- | --- | --- | --- | --- | --- | --- | --- | --- | --- | --- | --- | --- | --- | --- | --- | --- |
| Cc1cc2c(-c3ccccc3)cc(=O)[nH]c2cc1N | > 100 µM (inactive) | > 100 µM (inactive) | > 100 µM (inactive) | > 100 µM (inactive) | > 100 µM (inactive) | > 100 µM (inactive) | > 100 µM (inactive) | > 100 µM (inactive) | > 100 µM (inactive) | > 100 µM (inactive) | > 100 µM (inactive) | > 100 µM (inactive) | > 100 µM (inactive) | > 100 µM (inactive) | > 100 µM (inactive) | > 100 µM (inactive) | > 100 µM (inactive) |  |  |  |
| CCCc1n[nH]c(=O)n1N1C(=O)C=CC1=O | > 100 µM (inactive) |  | > 100 µM (inactive) | > 100 µM (inactive) | > 100 µM (inactive) |  | > 100 µM (inactive) |  | > 100 µM (inactive) |  |  | > 100 µM (inactive) | 30.5 µM (inactive) | > 100 µM (inactive) | > 100 µM (inactive) |  | > 100 µM (inactive) |  |  |  |
| COc1ccc2c(c1)C(=O)[C@@](Nc1ccc(C=O)cc1)(OC)[C@@](OC)(c1ccc([N+](=O)[O-])cc1)O2 | > 10 µM (inactive) | > 10 µM (inactive) | > 10 µM (inactive) | > 10 µM (inactive) | 7.67 µM (inactive) | 3.91 µM (inactive) | > 10 µM (inactive) | 6.12 µM (inactive) | 5.96 µM (inactive) | > 10 µM (inactive) |  | > 10 µM (inactive) | > 10 µM (inactive) | > 10 µM (inactive) | > 10 µM (inactive) | > 10 µM (inactive) | > 10 µM (inactive) | > 10 µM (inactive) | > 10 µM (inactive) | > 10 µM (inactive) |
| COc1ccc(C2Oc3ccc(Cl)cc3C=C2[N+](=O)[O-])cc1 (configuration not stated) |  | > 100 µM (inactive) | > 100 µM (inactive) | > 100 µM (inactive) | > 100 µM (inactive) |  | > 100 µM (inactive) |  | > 100 µM (inactive) |  |  | > 100 µM (inactive) | > 100 µM (inactive) | > 100 µM (inactive) | > 100 µM (inactive) | > 100 µM (inactive) | > 100 µM (inactive) | > 100 µM (inactive) | > 100 µM (inactive) | > 100 µM (inactive) |
| CC(=O)C(C)(C)CCC(C)(C)C(C)=O | > 100 µM (inactive) | > 100 µM (inactive) | > 100 µM (inactive) | > 100 µM (inactive) | > 100 µM (inactive) | > 100 µM (inactive) | > 100 µM (inactive) | > 100 µM (inactive) | > 100 µM (inactive) | > 100 µM (inactive) |  | < 0.01 µM (active) | > 100 µM (inactive) | > 100 µM (inactive) |  | > 100 µM (inactive) | > 100 µM (inactive) | > 100 µM (inactive) | > 100 µM (inactive) | > 100 µM (inactive) |
| Nc1c(C(=O)c2ccc(Cl)c(Cl)c2)[nH]c(NCc2ccccc2)c1C(=S)Nc1ccccc1 | 2.68 µM (inactive) | 14.7 µM (inactive) | 15.3 µM (inactive) | 3.96 µM (inactive) | 5.15 µM (inactive) | 10 µM (inactive) | 4.73 µM (inactive) | 11.3 µM (inactive) | 16.5 µM (inactive) | 3.22 µM (inactive) |  | 10.4 µM (inactive) | 15.8 µM (inactive) | 3.32 µM (inactive) | 5.08 µM (inactive) | 18.5 µM (inactive) | 18.2 µM (inactive) | 19.1 µM (inactive) | 14.1 µM (inactive) |  |
| CNC(=O)N1CCN(C(=O)NC)CCN(C(=O)NC)CC1 |  | > 100 µM (inactive) |  | > 100 µM (inactive) | > 100 µM (inactive) | > 100 µM (inactive) | > 100 µM (inactive) | > 100 µM (inactive) | > 100 µM (inactive) | > 100 µM (inactive) | > 100 µM (inactive) | > 100 µM (inactive) | > 100 µM (inactive) | > 100 µM (inactive) |  | > 100 µM (inactive) | > 100 µM (inactive) | > 100 µM (inactive) | > 100 µM (inactive) | > 100 µM (inactive) |
| C1=C(CC2=C[P+](c3ccccc3)(c3ccccc3)C=C(c3ccccc3)O2)OC(c2ccccc2)=C[P+]1(c1ccccc1)c1ccccc1 | 0.362 µM (active) | 0.239 µM (active) | 2.21 µM (inactive) | 0.269 µM (active) | 0.494 µM (active) | 0.291 µM (active) | 0.313 µM (active) |  | 0.17 µM (active) | 0.367 µM (active) | 0.166 µM (active) |  | 0.097 µM (active) |  | 0.304 µM (active) | 0.328 µM (active) | 0.448 µM (active) | 0.188 µM (active) | 0.362 µM (active) | 0.241 µM (active) |
